# From US11091428B2 (HAPLOGEN GMBH, priority 2016, dated 2021)
# Key:
# PLA2G16 = target: T1, PLA2G16 (Homo sapiens, UniProt P53816); assay: Enzyme activity assay for PLA2G16 (Red/Green BODIPY PC-A2 fluorescence); assay type: biochemical; conditions: His-tagged PLA2G16, 4 min pre-incubation, 2 nM to 50 μM; read-out: IC50 values of the compounds determined in the enzyme activity assay for PLA2G16
# T1 construct: Hexa-His (N); made in house; host or cells: E. coli BL21(DE3)
# T1 sequence (P53816 1-162): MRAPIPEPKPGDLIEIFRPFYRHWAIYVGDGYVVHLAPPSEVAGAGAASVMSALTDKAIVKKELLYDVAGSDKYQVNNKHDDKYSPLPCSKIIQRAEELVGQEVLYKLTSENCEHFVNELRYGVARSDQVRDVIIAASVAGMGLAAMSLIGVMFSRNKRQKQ
# Procedure, shortened: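 N-His-tagged human PLA2G16 from E. coli, Ni-NTA purified. Pre-incubated 4 min with compound (2 nM–50 μM final) in pH 8.5 Tris/NaCl buffer with 5 mM glutathione, then BODIPY PC-A2 in DOPC/DOPG/cholesterol vesicles added. Fluorescence (ex 480/em 530 nm) increase over 10 min taken as activity; IC50 by non-linear regression.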
# [1] = test system: picornaviruses (CVB1, HRV-A2, HRV-A23, EV-68); assay: Anti-picornavirus cytopathic effect (CPE) reduction assay on HeLa H1 cells; assay type: cell-based; conditions: Enterovirus B, HeLa H1, 48 h, HeLa H1 cells, 48 h, category from averaging the EC50 values from four picornaviruses (CVB1, HRV-A2, HRV-A23, EV68); read-out: EC50 values of the compounds determined in the anti-picornavirus assay
# Procedure, shortened: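 HeLa H1 cells pre-treated 2 h with serially diluted compound in DMEM/2% FBS, then infected at an MOI giving full CPE in 2 days. After 48 h at 37° C, viability read by CellTiterBlue fluorescence (ex 560/em 590 nm), normalised to infected and uninfected vehicle controls; EC50 by non-linear regression, category from mean of four viruses.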
Structure (SMILES),IC50 (PLA2G16),EC50 [1]
"Cc1ccccc1C(=O)N[C@H](C)C(=O)C(=O)NCC1CC1 (single isomer, unassigned) [FP 158]",< 1 µM,1 to 10 µM
"O=C(N[C@@H]1C[C@@H]1F)C(=O)C1N(Cc2ccccc2)C(=O)CC12CC2 (stereo partly drawn) [FP 346, 2-{5-Benzyl-6-oxo-5-azaspiro[2.4]heptan-4-yl}-N-[(1R,2S)-2-fluorocyclopropyl]-2-oxoacetamide]",< 1 µM,< 1 µM
"CNC(=O)C(=O)C(CC1CCC1)N(C=O)Cc1ccccc1 (centres unmarked) [FP 196, 3-(N-Benzylformamido)-4-cyclobutyl-N-methyl-2-oxobutanamide]",< 1 µM,1 to 10 µM
"CC(C(=O)C(=O)NCC1CC1)N(C)C(=O)C1CCCCC1 (centres unmarked) [FP 150, 3-(1-Cyclohexyl-N-methylformamido)-N-(cyclopropylmethyl)-2-oxobutanamide]",< 1 µM,1 to 10 µM
"Cc1ccccc1CN1C(=O)CCC1C(=O)C(=O)NC1CC1 (centres unmarked) [FP 261, N-Cyclopropyl-2-{1-[(2-methylphenyl)methyl]-5-oxopyrrolidin-2-yl}-2-oxoacetamide]",< 1 µM,1 to 10 µM
"CC(C)N(C=O)C(C)C(=O)C(=O)NCC1CCCCC1 (centres unmarked) [FP 48, N-(Cyclohexylmethyl)-2-oxo-3-[N-(propan-2-yl)formamido]butanamide]",< 1 µM,1 to 10 µM
"O=C(NCC1CC1)C(=O)C1CCC(=O)N1CC1CCCC1 (centres unmarked) [FP 280, 2-[1-(Cyclopentylmethyl)-5-oxopyrrolidin-2-yl]-N-(cyclopropylmethyl)-2-oxoacetamide]",< 1 µM,< 1 µM
"CC[C@H](C)NC(=O)C(=O)C(C)N(C=O)c1ccccc1OC (stereo partly drawn) [FP 106, N-[(2S)-Butan-2-yl]-3-[N-(2-methoxyphenyl)formamido]-2-oxobutanamide]",< 1 µM,1 to 10 µM
"CC(C(=O)C(=O)NCC1CC1)N(C=O)C1CCCCC1 (centres unmarked) [FP 40, 3-(N-Cyclohexylformamido)-N-(cyclopropylmethyl)-2-oxobutanamide]",< 1 µM,< 1 µM
"CNC(=O)C(=O)C(CC(C)C)N(C=O)Cc1ccccc1 (centres unmarked) [FP 195, 3-(N-Benzylformamido)-N,5-dimethyl-2-oxohexanamide]",< 1 µM,1 to 10 µM
"CC(C(=O)C(=O)NCC1CC1)N(C=O)CC1CCCCC1 (centres unmarked) [FP 38, 3-[N-(Cyclohexylmethyl)formamido]-N-(cyclopropylmethyl)-2-oxobutanamide]",< 1 µM,< 1 µM
"CC(C(=O)C(=O)NC(C)(C)c1cccc(Cl)c1)N(C=O)C1CCCCC1 (centres unmarked) [FP 27, N[2-(3-Chlorophenyl)propan-2-yl]-3-(N-cyclohexylformamido)-2-oxobutanamide]",< 1 µM,< 1 µM
"CC(C)CC(OCC1CCOCC1)C(=O)C(=O)NCC1CC1 (centres unmarked) [FP 130, N-(Cyclopropylmethyl)-5-methyl-3-[(oxan-4-yl)methoxy]-2-oxohexanamide]",< 1 µM,1 to 10 µM
"O=C(NC1CCN(C(=O)NC2CCCC2)CC1)C(=O)[C@H]1CCC(=O)N1Cc1ccccc1 [FP 325, 4-{2-[(2R)-1-Benzyl-5-oxopyrrolidin-2-yl]-2-oxoacetamido}-N-cyclopentylpiperidine-1-carboxamide]",< 1 µM,< 1 µM
"O=C(NCC1CCCCC1)C(=O)C1CCC(=O)N1CCC1CCOCC1 (centres unmarked) [FP 245, N-(Cyclohexylmethyl)-2-{1-[2-(oxan-4-yl)ethyl]-5-oxopyrrolidin-2-yl}-2-oxoacetamide]",< 1 µM,1 to 10 µM
"O=CN(CC1CCOCC1)C(CCc1ccccc1)C(=O)C(=O)NCC1CC1 (centres unmarked) [FP 68, N-(Cyclopropylmethyl)-3-{N-[(oxan-4-yl)methyl]formamido}-2-oxo-5-phenylpentanamide]",< 1 µM,< 1 µM

Structure (SMILES),IC50 (PLA2G16),EC50 [1]
"Cn1nccc1CNC(=O)C(=O)[C@H]1CCC(=O)N1Cc1ccccc1 [FP 296, 2-[(2R)-1-Benzyl-5-oxopyrrolidin-2-yl]-N-[(1-methyl-1H-pyrazol-5-yl)methyl]-2-oxoacetamide]",< 1 µM,1 to 10 µM
"CC(C)CNC(=O)C(=O)C(C)NC(=O)c1ccccc1 (centres unmarked) [FP 182, N-(2-Methylpropyl)-2-oxo-3-(phenylformamido)butanamide]",< 1 µM,> 10 µM
"CCCNC(=O)C(=O)[C@H]1CCC(=O)N1Cc1ccccc1 [FP 288, 2-[(2R)-1-Benzyl-5-oxopyrrolidin-2-yl]-2-oxo-N-propylacetamide]",< 1 µM,< 1 µM
"O=C(NC1CN(S(=O)(=O)C2CCCC2)C1)C(=O)[C@H]1CCC(=O)N1Cc1ccccc1 [FP 322, 2-[(2R)-1-Benzyl-5-oxopyrrolidin-2-yl]-N-[1-(cyclopentanesulfonyl)azetidin-3-yl]-2-oxoacetamide]",< 1 µM,< 1 µM
"O=C(N[C@@H]1CCCC[C@@H]1O)C(=O)[C@H]1CCC(=O)N1Cc1ccccc1 (single isomer, unassigned) [FP 272]",1 to 10 µM,> 10 µM
"CC(C)CC(C(=O)C(N)=O)N(C=O)Cc1ccccc1 (centres unmarked) [FP 199, 3-(N-Benzylformamido)-5-methyl-2-oxohexanamide]",< 1 µM,> 10 µM
"CC(C)OCCNC(=O)C(=O)[C@H]1CCC(=O)N1Cc1ccccc1 [FP 286, 2-[(2R)-1-Benzyl-5-oxopyrrolidin-2-yl]-2-oxo-N-[2-(propan-2-yloxy)ethyl]acetamide]",< 1 µM,1 to 10 µM
"O=CN(Cc1ccccc1)C(C(=O)C(=O)NCC1CC1)C1CC1 (centres unmarked) [FP 67, 3-(N-Benzylformamido)-3-cyclopropyl-N-(cyclopropylmethyl)-2-oxopropanamide]",< 1 µM,< 1 µM
"O=CN(CC(=O)C(=O)NCC1CC1)Cc1ccccc1 [FP 193, 3-(N-Benzylformamido)-N-(cyclopropylmethyl)-2-oxopropanamide]",< 1 µM,< 1 µM
"O=C(NCC1CC1)C(=O)C1CCCC(=O)N1Cc1ccccc1 (centres unmarked) [FP 204, 2-(1-Benzyl-6-oxopiperidin-2-yl)-N-(cyclopropylmethyl)-2-oxoacetamide]",< 1 µM,1 to 10 µM
"O=C(NCC1CC1)C(=O)[C@H]1CCC(=O)N1Cc1ccccc1 [FP 224, 2-[(2R)-1-Benzyl-5-oxopyrrolidin-2-yl]-N-(cyclopropylmethyl)-2-oxoacetamide]",< 1 µM,< 1 µM
"CC(NC(=O)c1ccccc1F)C(=O)C(=O)NCC1CC1 (centres unmarked) [FP 164, N-(Cyclopropylmethyl)-3-[(2-fluorophenyl)formamido]-2-oxobutanamide]",< 1 µM,1 to 10 µM
"CC(C(=O)C(=O)NCC1CC1)N(C=O)CC1CCN(C(=O)c2ccccc2)CC1 (centres unmarked) [FP 80, 3-{N[(1-Benzoylpiperidin-4-yl)methyl]formamido}-N-(cyclopropylmethyl)-2-oxobutanamide]",1 to 10 µM,> 10 µM
"O=C(NCC1CC1)C(=O)C1CCC(=O)N1CCc1ccccc1 (centres unmarked) [FP 253, N-(Cyclopropylmethyl)-2-oxo-2-[5-oxo-1-(2-phenylethyl)pyrrolidin-2-yl]]",< 1 µM,1 to 10 µM
"CNC(=O)C(=O)C(C(C)C)N(C=O)Cc1ccccc1 (centres unmarked) [FP 197, 3-(N-Benzylformamido)-N,4-dimethyl-2-oxopentanamide]",< 1 µM,> 10 µM
